Test results as given in ChEMBL document CHEMBL4342419 (Eur J Med Chem, 2019).

Experiments:
[1] = biological target: T1, 5-hydroxytryptamine receptor 1A (Homo sapiens, UniProt P08908); test: Antagonist activity at 5-HT1A receptor (unknown origin)
T1 sequence (P08908 whole entry): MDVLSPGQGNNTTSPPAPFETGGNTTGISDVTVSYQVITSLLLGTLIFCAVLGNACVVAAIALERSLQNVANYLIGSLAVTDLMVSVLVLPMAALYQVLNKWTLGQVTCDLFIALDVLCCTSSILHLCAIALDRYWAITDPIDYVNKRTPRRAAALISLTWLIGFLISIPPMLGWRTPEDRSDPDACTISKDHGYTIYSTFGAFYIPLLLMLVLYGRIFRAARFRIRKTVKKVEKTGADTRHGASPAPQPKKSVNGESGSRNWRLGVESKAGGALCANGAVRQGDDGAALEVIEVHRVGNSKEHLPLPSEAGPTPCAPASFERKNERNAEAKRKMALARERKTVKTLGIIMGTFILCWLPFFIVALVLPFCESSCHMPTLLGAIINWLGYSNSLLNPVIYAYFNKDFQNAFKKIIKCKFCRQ

[2] = biological target: T2, 5-hydroxytryptamine receptor 7 (Homo sapiens, UniProt P34969); test: Antagonist activity at 5-HT7 receptor (unknown origin)
T2 sequence (P34969 whole entry): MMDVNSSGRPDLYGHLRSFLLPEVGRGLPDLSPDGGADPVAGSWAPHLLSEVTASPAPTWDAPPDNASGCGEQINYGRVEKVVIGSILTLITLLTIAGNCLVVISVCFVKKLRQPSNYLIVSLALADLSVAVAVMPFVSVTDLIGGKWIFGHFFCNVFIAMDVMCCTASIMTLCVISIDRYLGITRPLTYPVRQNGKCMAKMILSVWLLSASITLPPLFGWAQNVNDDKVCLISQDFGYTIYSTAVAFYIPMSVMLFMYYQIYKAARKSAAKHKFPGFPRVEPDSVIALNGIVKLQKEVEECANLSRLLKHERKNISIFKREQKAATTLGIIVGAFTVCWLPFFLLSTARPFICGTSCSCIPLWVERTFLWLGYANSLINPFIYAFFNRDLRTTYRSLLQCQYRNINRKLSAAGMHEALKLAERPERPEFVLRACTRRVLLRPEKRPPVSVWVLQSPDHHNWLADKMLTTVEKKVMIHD

[3] = biological target: T2, 5-hydroxytryptamine receptor 7; test: biochemical; format: cell-based
[4] = biological target: 5-hydroxytryptamine receptor 7 (Rattus norvegicus, UniProt P32305); test: Displacement of [3H]5-CT from recombinant rat 5-HT7 receptor expressed in HEK293 cells; format: cell-based
Sequence of 5-hydroxytryptamine receptor 7 (Rattus norvegicus, UniProt P32305) (P32305 whole entry): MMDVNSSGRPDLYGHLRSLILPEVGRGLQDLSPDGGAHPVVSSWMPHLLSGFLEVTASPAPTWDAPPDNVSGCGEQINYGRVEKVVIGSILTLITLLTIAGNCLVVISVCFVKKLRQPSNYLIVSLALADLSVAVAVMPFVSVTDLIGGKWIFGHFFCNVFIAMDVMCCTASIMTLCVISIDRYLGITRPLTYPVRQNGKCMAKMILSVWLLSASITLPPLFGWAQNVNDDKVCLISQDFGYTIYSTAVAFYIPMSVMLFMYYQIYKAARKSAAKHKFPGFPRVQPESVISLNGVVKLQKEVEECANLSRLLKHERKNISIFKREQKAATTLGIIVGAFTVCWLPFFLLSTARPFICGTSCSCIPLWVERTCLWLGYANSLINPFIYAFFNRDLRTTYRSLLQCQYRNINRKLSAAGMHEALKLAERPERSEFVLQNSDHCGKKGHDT

In the case of `CC(Nc1nc(N)nc(NCCOc2ccc(F)cc2)n1)c1ccc(F)cc1` (stereo not drawn), the Ki [1] is reported as > 100 nM.

With `CC(Nc1nc(N)nc(NCCOc2ccccc2)n1)c1ccccc1` (stereo not drawn) the Ki [2] was 3 nM and the Ki [1] was > 100 nM.

Work on `COc1cccc(OC)c1-c1cccc(CCN(C)C)c1` yielded a Ki [1] of 4830 nM.

`CCN(CC)C(=O)[C@@H]1C=C2c3cccc4[nH]c(Br)c(c34)C[C@H]2N(C)C1` gave a Ki [3] of 31.6 nM.

`COc1ccccc1N1CCN(Cc2cn(-c3cccc4ccccc34)c3ccccc23)CC1` gave a Ki [1] of 700 nM.

`O=C1Cc2ccccc2N1CC/C=C/CCN1CCc2ccccc2C1` was tested, and the Ki [1] was > 1000 nM.

Work on `CCC1(CCCCN2CCN(c3ccc(Cl)cc3)CC2)C(=O)Nc2cc(F)ccc21` (stereo not drawn) yielded a Ki [1] of 1610 nM.

`Cc1nn(C)c(C)c1-c1ccc(O)c(CCN(C)C)c1` was tested, and the Ki [1] was > 10000 nM.

`COc1ccc(S(=O)(=O)NCCCN2CCN(c3ccccc3OC)CC2)cc1` showed a Ki [1] of 272 nM.

Compound `O=S(=O)(c1ccc2cc[nH]c2c1)N1CCC[C@H]1CCN1CCC(Oc2ccc(Cl)cc2)CC1` has a Ki [2] of 1.99 nM and a Ki [1] of 562 nM.

For `CNC(=O)Cn1c2c(c3ccccc31)CN(CCCCC13CCCc4cccc(c41)NC3=O)CC2` (stereo not drawn), the Ki [2] was 3.54 nM and the Ki [1] was 128 nM.

With `CCOc1ccccc1N1CCN(CCCCC(=O)NCc2nc3cc(F)ccc3c(=O)n2-c2ccccc2)CC1` the IC50 [1] was 500 nM.

In the case of `Clc1ccc(-c2nn(Cc3ccccc3)c3c2CCNCC3)cc1` [JNJ-18038683 FREE BASE], the Ki [1] is reported as 6.5 nM and the Ki [4] is reported as 316 nM.

For `Cc1cccc(S(=O)(=O)N(C)[C@H](C)CCN2CCC(C)CC2)c1` [SB-258719], the Ki [1] was > 3000 nM.
